Read-outs that look alike come from different tables or passages of the source.
Legend:
[1] = biological target: Mcl-1 protein (UniProtKB Q07820) (Homo sapiens (Human), UniProt Q07820); experiment: Inhibition of Mcl-1 by the fluorescence polarisation assay (Example A, Method A); format: binding; conditions: fluorescence polarization assay
How it was run: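 Protein (5 nM) and fluorescein-tagged peptide tracer (1 nM) incubated with 11-point compound series for 2 h at room temperature in HEPES/NaCl/Tween 20 buffer, pH 7.4, 5% DMSO. Displacement read as decrease in polarisation; IC50 fitted by 4-parameter logistic, converted to Ki (cKi or eKi).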

[2] = tested on: H929 multiple myeloma tumor line; experiment: In vitro cytotoxicity, MTT assay (Example B, Method A); format: cell-based; conditions: H929 cells, 48 hours exposure, read-out: C50
Method: The cytotoxicity studies were carried out on the H929 multiple myeloma tumor line.
The cells are distributed onto microplates and exposed to the test compounds for 48 hours. The cell viability is then quantified by a colorimetric assay, the Microculture Tetrazolium Assay (Carmichael et al, Cancer Res. 1987, 47, 939-942).
The results are expressed in C50 which means concentration corresponding to […] of effect/inhibition.

Chain of Mcl-1 protein (Q07820 whole entry): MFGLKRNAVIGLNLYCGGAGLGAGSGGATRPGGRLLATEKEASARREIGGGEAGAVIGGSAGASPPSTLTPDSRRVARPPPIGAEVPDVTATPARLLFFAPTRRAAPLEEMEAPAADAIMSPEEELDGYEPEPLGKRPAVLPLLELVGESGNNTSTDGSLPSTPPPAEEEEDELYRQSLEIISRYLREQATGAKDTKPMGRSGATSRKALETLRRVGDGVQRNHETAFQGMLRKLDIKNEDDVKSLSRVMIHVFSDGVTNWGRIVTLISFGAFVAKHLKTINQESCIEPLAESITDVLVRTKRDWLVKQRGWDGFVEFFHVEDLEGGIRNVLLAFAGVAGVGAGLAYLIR

| Structure (SMILES) | Ki [1] [µM] | IC50 ([2]; Homo sapiens, NCI-H929, 48 h) [µM] | IC50 [2] [µM] |
| --- | --- | --- | --- |
| C[C@@H](COc1ccnc2ccsc12)C[C@@H]1Cc2ccccc2[C@]12CC[C@@](Nc1cccc(Cl)c1)(C(=O)O)CC2 [Example 590, (1r,2′R,4R)-4-(3-chloroanilino)-2′-{(2R)-2-methyl-3-[(thieno[3,2-b]pyridin-7-yl)oxy]propyl}-2′,3′-dihydrospiro[cyclohexane-1,1′-indene]-4-carboxylic acid] | 0.0192 | 1.17 |  |
| C[C@@H](COc1ccnc2c1CCCO2)C[C@H]1Cc2ccccc2[C@]12CC[C@@](Nc1cccc(Cl)c1)(C(=O)O)CC2 [Example 635, (1r,2′S,4S)-4-(3-chloroanilino)-2′-{(2R)-3-[(3,4-dihydro-2H-pyrano[2,3-b]pyridin-5-yl)oxy]-2-methylpropyl}-2′,3′-dihydrospiro[cyclohexane-1,1′-indene]-4-carboxylic acid] | 0.0448 | 4.59 |  |
| O=C1c2ccccc2[C@]2(CC[C@@](Nc3cccc(Cl)c3)(C(=O)O)CC2)N1CCCOc1ccccc1 [Example 34, (1s,4s)-4-(3-chloroanilino)-3′-oxo-2′-(3-phenoxypropyl)-2′,3′-dihydrospiro[cyclohexane-1,1′-isoindole]-4-carboxylic acid] | 0.648 | 30 |  |
| C[C@@H](COc1ccncc1)C[C@H]1Cc2ccccc2[C@]12CC[C@@](Nc1cccc(Cl)c1)(C(=O)O)CC2 [Example 582, (1r,2′S,4S)-4-(3-chloroanilino)-2′-{(2R)-2-methyl-3-[(pyridin-4-yl)oxy]propyl}-2′,3′-dihydrospiro[cyclohexane-1,1′-indene]-4-carboxylic acid] | 0.0519 | 2.55 |  |
| COCCOc1ccc2c(c1)[C@]1(CC[C@@](Nc3cccc(Cl)c3)(C(=O)O)CC1)C(c1cccc(Oc3ccccc3)c1)C2 (single isomer, unassigned) [Example 384, (1r,4r)-4-(3-chloroanilino)-6′-(2-methoxyethoxy)-2′-(3-phenoxyphenyl)-2′,3′-dihydrospiro[cyclohexane-1,1′-indene]-4-carboxylic acid] | 0.0588 | 11.4 |  |
| CCC1CC(O)c2nccc(OC[C@H](C)C[C@H]3Cc4ccccc4[C@]34CC[C@@](Nc3cccc(Cl)c3)(C(=O)O)CC4)c21 (stereo partly drawn) [Example 624, (1r,2′S,4S)-4-(3-chloroanilino)-2′-{(2R)-3-[(5-ethyl-7-hydroxy-6,7-dihydro-5H-cyclopenta[b]pyridin-4-yl)oxy]-2-methylpropyl}-2′,3′-dihydrospiro[cyclohexane-1,1′-indene]-4-carboxylic acid] |  | 0.525 |  |
| C[C@@H](COc1ccncc1C1CC1(C)C)C[C@H]1Cc2ccccc2[C@]12CC[C@@](Nc1cccc(Cl)c1)(C(=O)O)CC2 (stereo partly drawn) [Example 580, (1r,2′S,4S)-4-(3-chloroanilino)-2′-[(2R)-3-{[3-(2,2-dimethylcyclopropyl)pyridin-4-yl]oxy}-2-methylpropyl]-2′,3′-dihydrospiro[cyclohexane-1,1′-indene]-4-carboxylic acid] | 0.0927 | 5.12 |  |
| O=C(O)[C@]1(Nc2cccc(Cl)c2)CC[C@@]2(CC1)c1ccccc1CC2CCCOc1ncncc1C1CC1 (mixture of isomers) [Example 465, (1r,4r)-4-(3-chloroanilino)-2′-{3-[(5-cyclopropylpyrimidin-4-yl)oxy]propyl}-2′,3′-dihydrospiro[cyclohexane-1,1′-indene]-4-carboxylic acid] | 0.0754 | 9.6 |  |
| O=C(O)[C@]1(Nc2cccc(Cl)c2)CC[C@@]2(CC1)c1ccccc1CC2CCCOc1ccnc2c1CCCC2 (stereo partly shown) [Example 451, (1r,4r)-4-(3-chloroanilino)-2′-{3-[(5,6,7,8-tetrahydroquinolin-4-yl)oxy]propyl}-2′,3′-dihydrospiro[cyclohexane-1,1′-indene]-4-carboxylic acid] | 0.0497 | 3.49 |  |
| O=C(O)[C@]1(Nc2cccc(Cl)c2)CC[C@@]2(CC1)c1ccccc1C[C@@H]2C[C@@H](COc1cccnc1)c1ccccc1 [Example 548, (1r,2′S,4S)-4-(3-chloroanilino)-2′-{(2R)-2-phenyl-3-[(pyridin-3-yl)oxy]propyl}-2′,3′-dihydrospiro[cyclohexane-1,1′-indene]-4-carboxylic acid] | 0.995 | 30 |  |
| O=C(O)[C@]1(Nc2cccc(Cl)c2)CC[C@]2(CC1)C(C#CCOc1ccccc1)=Cc1ccccc12 [Example 172, (1s,4s)-4-(3-chloroanilino)-2′-(3-phenoxyprop-1-yn-1-yl)spiro[cyclohexane-1,1′-indene]-4-carboxylic acid] | 0.0558 | 18.7 |  |
| CNc1cccc(OC[C@H](C)C[C@H]2Cc3ccccc3[C@]23CC[C@@](Nc2cccc(Cl)c2)(C(=O)O)CC3)c1 [Example 569, (1r,2′S,4S)-4-(3-chloroanilino)-2′-{(2R)-2-methyl-3-[3-(methylamino)phenoxy]propyl}-2′,3′-dihydrospiro[cyclohexane-1,1′-indene]-4-carboxylic acid] | 0.0743 | 1.72 |  |
| O=C(O)[C@]1(Nc2cccc(Cl)c2)CC[C@@]2(CC1)c1ccccc1C[C@H]2C[C@H](COc1ccncc1)c1ccccc1 [Example 554, (1r,2′R,4R)-4-(3-chloroanilino)-2′-{(2S)-2-phenyl-3-[(pyridin-4-yl)oxy]propyl}-2′,3′-dihydrospiro[cyclohexane-1,1′-indene]-4-carboxylic acid] | 0.323 | 30 |  |
| O=C(O)C1(Nc2cccc(Br)c2)CCC2(CCc3ccccc32)CC1 (stereo not shown) [Example 57, 4-(3-bromoanilino)-2′,3′-dihydrospiro[cyclohexane-1,1′-indene]-4-carboxylic acid] | 0.934 | 30 |  |
| O=C(O)[C@]1(Nc2cccc(Cl)c2)CC[C@@]2(CC1)c1ccccc1C[C@H]2C[C@H](COc1ccccc1)c1ccccc1 [Example 557, (1r,2′R,4R)-4-(3-chloroanilino)-2′-[(2S)-3-phenoxy-2-phenylpropyl]-2′,3′-dihydrospiro[cyclohexane-1,1′-indene]-4-carboxylic acid] | 1.27 | 20.1 |  |
| O=C(O)[C@]1(Nc2cccc(Cl)c2)CC[C@@]2(CC1)c1ccccc1C[C@H]2CCCOc1ccnc2ccsc12 [Example 439, (1r,2′R,4R)-4-(3-chloroanilino)-2′-{3-[(thieno[3,2-b]pyridin-7-yl)oxy]propyl}-2′,3′-dihydrospiro[cyclohexane-1,1′-indene]-4-carboxylic acid] | 0.0686 | 3.88 |  |
| O=C(O)[C@]1(Nc2cccc(Cl)c2)CC[C@]2(CC1)C(c1cccc(OCc3ccncc3)c1)=Cc1ccccc12 [Example 362, (1s,4s)-4-(3-chloroanilino)-2′-{3-[(pyridin-4-yl)methoxy]phenyl}spiro[cyclohexane-1,1′-indene]-4-carboxylic acid] | 0.174 | 21.6 |  |
| CCC1Cc2ccccc2C12CCC(Nc1cccc(Br)c1)(C(=O)O)CC2 (stereo not shown) [Example 147, 4-(3-bromoanilino)-2′-ethyl-2′,3′-dihydrospiro[cyclohexane-1,1′-indene]-4-carboxylic acid] | 0.816 | 30 |  |
| CC(C)Oc1ccc2c(c1)[C@]1(CC[C@@](Nc3cccc(Cl)c3)(C(=O)O)CC1)C(c1cccc(Oc3ccccc3)c1)C2 (single isomer, unassigned) [Example 387, (1r,4r)-4-(3-chloroanilino)-2′-(3-phenoxyphenyl)-6′-[(propan-2-yl)oxy]-2′,3′-dihydrospiro[cyclohexane-1,1′-indene]-4-carboxylic acid] | 0.22 | 9.59 |  |
| CC(C)C(COc1ccnc2ccsc12)CC1Cc2ccccc2[C@]12CC[C@@](Nc1cccc(Cl)c1)(C(=O)O)CC2 (single isomer, unassigned) [Example 524, (1r,4r)-4-(3-chloroanilino)-2′-(3-methyl-2-{[(thieno[3,2-b]pyridin-7-yl)oxy]methyl}butyl)-2′,3′-dihydrospiro[cyclohexane-1,1′-indene]-4-carboxylic acid] |  |  | 30 |
| O=C(O)[C@]1(Nc2cccc(Br)c2)CC[C@@]2(C=Cc3c(Br)cccc32)CC1 [Example 60, (1r,4r)-4′-bromo-4-(3-bromoanilino)spiro[cyclohexane-1,1′-indene]-4-carboxylic acid] | 0.276 | 30 |  |
| CC(C)C(COc1ccnc2ccsc12)CC1Cc2ccccc2[C@]12CC[C@@](Nc1cccc(Cl)c1)(C(=O)O)CC2 (single isomer, unassigned) [Example 523, (1r,4r)-4-(3-chloroanilino)-2′-(3-methyl-2-{[(thieno[3,2-b]pyridin-7-yl)oxy]methyl}butyl)-2′,3′-dihydrospiro[cyclohexane-1,1′-indene]-4-carboxylic acid] |  |  | 16.4 |
| C[C@@H](COc1cccc2ncsc12)C[C@H]1Cc2ccccc2[C@]12CC[C@@](Nc1cccc(Cl)c1)(C(=O)O)CC2 [Example 625, (1r,2′S,4S)-2′-{(2R)-3-[(1,3-benzothiazol-7-yl)oxy]-2-methylpropyl}-4-(3-chloroanilino)-2′,3′-dihydrospiro[cyclohexane-1,1′-indene]-4-carboxylic acid] |  | 6.59 |  |
| C[C@@H](COc1ccnc2[nH]ccc12)C[C@H]1Cc2ccccc2[C@]12CC[C@@](Nc1cccc(Cl)c1)(C(=O)O)CC2 [Example 626, (1r,2′S,4S)-4-(3-chloroanilino)-2′-{(2R)-2-methyl-3-[(1H-pyrrolo[2,3-b]pyridin-4-yl)oxy]propyl}-2′,3′-dihydrospiro[cyclohexane-1,1′-indene]-4-carboxylic acid] |  | 0.54 |  |
